Laboratory results as given in patent US20220387350A1, “CANNABIDIVARIN PREPARATIONS FOR USE AS A MEDICAMENT” (GW Research Limited, priority 2019, published 2022).
“And” between values parts separate entries of the source, which are not always exact repeats. Equal entries are not always repeated.

Columns and labels:
[1] = Autofluorescence emission scan (Ensight multimodal plate reader); assay type: physicochemical; conditions: 100 mM
Experimental: (§1) Botanically derived purified CBDV (BOT) and Synthetic CBDV (SYN) were tested in duplicates at five concentrations of 0.1 mM, 0.5 mM, 1 mM, 50 mM and 100 mM in 100% DMSO or 100% Ethanol.
(§2) 200 μL of each sample or buffer were added into microplates in duplicate. Measurement has been performed on the Ensight multimodal plate reader (Perkin Elmer).
In order to confirm the emission peak of the test substance, an emission scan was performed using the excitation peaks identified after the excitation scan. The […] was set to start for botanically derived purified CBDV and synthetic CBDV at 20 nm above the tentative excitation values using a step increment of 2 nm. Wavelengths up to 800 nm were scanned for emission.
The wavelength giving the maximum emission for the samples was defined as the optimal emission wavelength for the chosen excitation wavelength.

[2] = Autofluorescence excitation scan (Ensight multimodal plate reader); assay type: physicochemical; conditions: 100 mM; for excitation peak point (first, lower-wavelength peak) / excitation peak point (second, higher-wavelength peak) / fluorescence intensity at first excitation peak / fluorescence intensity at second excitation peak: ethanol as vehicle
Experimental: as §1, §2
An excitation scan was used to detect the excitation peak for each test substance. The excitation scan was set from 230 to 380 nm and below the emission wavelength of 400 nm. The excitation scan was also set from 230 to 420 nm and below the emission wavelength of 440 nm. In both cases, a step increment of 2 nm was used for these scans.
Based on these analyses, the peaks of excitation wavelengths for the two tentative emission wavelengths were determined and used to identify the optimal excitation wavelength/s.

[3] = tested on: sub-chronic PCP-induced deficit in novel object recognition; assay: Novel object recognition (NOR) test after sub-chronic PCP, animal model of schizophrenia; assay type: in vivo, rat (female hooded-Lister)
Excerpt: The effect of PCP in the novel object recognition (NOR) test is a model of visual recognition memory deficits similar to those observed in schizophrenia. The atypical antipsychotics, clozapine and risperidone, can attenuate the deficit. The study was designed to determine if botanically derived purified CBDV and/or synthetic CBDV could attenuate the deficits in novel object recognition caused by administration of PCP.
Female hooded-Lister rats were used for this experiment. Rats were housed in groups of 5 under standard laboratory conditions under a 12 hr light: dark cycle, with lights on at 0700 hr. Testing was carried out in the light phase. Rats were randomly assigned to two treatment groups and treated with vehicle, n=15 (distilled water, i.p.) or Phencyclidine hydrochloride (PCP), n=75 (2 mg/kg, i.p. twice daily for 7-days). PCP was dissolved in distilled water. This was followed by a 7-day wash out period before the rats were tested following acute treatment with […], risperidone or vehicle. […]
Following the 3 minute habituation period, the rats are given two 3 minute trials (T1 and T2) which were separated by a 1 minute inter-trial interval in the home cage during which the objects were changed. Behavior in all trials was recorded on video for subsequent blind scoring. […]
The exploration time(s) of each object (A, B, familiar and novel) in each trial were recorded using two stopwatches and the following factors were calculated: total exploration time of both objects in the acquisition trial, total exploration time of both objects in the retention trial. Habituation of exploratory activity included the exploration time, as measured by the number of lines crossed, for both trials.
All data were assessed for normality using D'Agostino and Pearson normality test. Data non-normally distributed were analyzed using Kruskal-Wallis followed by planned comparisons with Dunn's correction. Normally distributed data were analyzed using one-way ANOVA followed by planned comparisons with Sidak's correction. […]

[4] = cited from earlier work
[5] = DMSO as vehicle, excitation wavelength set at 328 nm
[6] = DMSO as vehicle, excitation wavelength set at 334 nm
[7] = DMSO as vehicle, excitation wavelength set at 344 nm
[8] = ethanol as vehicle, excitation wavelength set at 326 nm
[9] = ethanol as vehicle, excitation wavelength set at 340 nm
[10] = emission wavelength set at 400 nm
[11] = emission wavelength set at 440 nm

C=C(C)[C@@H]1CCC(C)=C[C@H]1c1c(O)cc(CCC)cc1O [synthetic CBDV, Cannabidivarin]
emission peak point [1, 5]: 394 nm | fluorescence intensity at emission peak [1, 5]: 264597 au | emission peak point [1, 6]: 392 nm | fluorescence intensity at emission peak [1, 6]: 201880 au | emission peak point [1, 7]: 390 nm | fluorescence intensity at emission peak [1, 7]: 158071 au | emission peak point [1, 8]: 390 nm | fluorescence intensity at emission peak [1, 8]: 67541 au | emission peak wavelength [1, 9]: 378 nm | fluorescence intensity at peak [1, 9]: 29009 au | excitation peak point (first, lower-wavelength peak) [2, 10]: 282 nm | excitation peak point (second, higher-wavelength peak) [2, 10]: 324 nm | fluorescence intensity at first excitation peak [2, 10]: 139797 au | fluorescence intensity at second excitation peak [2, 10]: 123100 au | excitation peak point (first, lower-wavelength peak) [2, 11]: 280 nm | excitation peak point (second, higher-wavelength peak) [2, 11]: 326 nm | fluorescence intensity at first excitation peak [2, 11]: 39433 au | fluorescence intensity at second excitation peak [2, 11]: 41443 au | excitation peak points ([2]; pure DMSO as vehicle, emission wavelength set at 400 nm): 282 nm and 326 nm | human daily amount of CBDV corresponding to the rat MED ([3]; 70 kg human, rat dose x 0.16 x 70): 224 mg/day | human equivalent dose of the rat MED ([3]; rat dose multiplied by 0.16 (FDA dose conversion guidance)): 3.2 mg/kg/day | minimal effective dose (MED) attenuating sub-chronic PCP-induced deficit in novel object recognition ([3]; rats, 2-20 mg/kg i.p., 60 min ppt, n=8-10 per group): 20 mg/kg

C=C(C)[C@@H]1CCC(C)=C[C@H]1c1c(O)cc(CCC)cc1O [CBDV, 2-[(1R,6R)-3-Methyl-6-(1-methylethenyl)-2-cyclohexen-1-yl]-5-propyl-1,3-benzenediol]
solubility in organic solvents ([4]; organic solvents): soluble | solubility in water ([4]; water): insoluble
